Common to all, as to assay: inhibition of tumour cell growth, NCI panel, 48 h
For assay [1], the system named is CCRF-CEM leukemia.
The subject of assay [2] is EKVX NSCLC.
The test system of assay [3] is HOP-92 NSCLC.
Assay [4] deals with HT29 colon.
Assay [5] relates to LOX IMVI melanoma.
The test system of assay [6] is NCI-H23 lung.
Assay [7] has as its system SF-268 CNS.
For assay [8], the system named is SK-OV-3 ovarian.
Assay [9] relates to SN12C renal.
Assay [10] concerns U251 CNS.

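Test compounds were applied to cells in 96-well plates for 48 hours at 5 doses. TGI: total growth inhibition.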

5 compounds from PubChem BioAssay (NCI) can be followed below.

For `COc1cc(C=O)c(-c2cc3c(cc2C=O)OCO3)c(OC)c1OC`, the TGI was over 290 µM in assay [1]; over 290 µM in [2]; 241 µM in assay [3]; 186 µM in assay [4]; over 290 µM in assay [5]; 222 µM in assay [6]. Further, the TGI is over 290 µM in assay [7], over 290 µM in assay [8], 260 µM in [9] and over 290 µM in assay [10].
On to `CC(C)=CCC[C@H](C)[C@H]1CC[C@@H](C)c2cc(O)c(C)cc21`, for which the TGI in assay [1] was 68 µM; in assay [2], 33.4 µM; in assay [3] it was 32.2 µM; in assay [4], 37.2 µM; in [5] it was 32 µM; in assay [6] it was 33 µM. Besides, the TGI in assay [7] is 31.2 µM; in [8] it was 35.4 µM; in assay [9], 29.8 µM; in assay [10], 31.1 µM.
Take `O=C(/C(=C/c1cccs1)c1ccccc1)c1ccccc1`: the TGI in assay [1], in assay [2], in assay [3], in assay [4], in assay [5] and in assay [6] was over 100 µM throughout. For the same compound, the TGI in assay [7], in assay [8], in [9] and in assay [10] was over 100 µM in each case.
`CCOP(=O)(OCC)/C(C#N)=C/c1c(C)[nH]c2ccccc12`: the TGI in assay [1], in assay [2], in assay [3], in assay [4], in assay [5] and in [6] was over 100 µM each time. For the same compound, the TGI in assay [7], in [8], in assay [9] and in assay [10] was over 100 µM each time.
For the compound `CCOC1SC(SC)=NN1C(=O)C(OC(C)=O)C(OC(C)=O)C(OC(C)=O)C(OC(C)=O)C(=O)N1N=C(SC)SC1OCC` (stereo not given), the TGI in assay [1], in [2], in [3], in [4], in assay [5] and in [6] was over 100 µM in each case. The TGI in assay [7], in assay [8], in assay [9] and in [10] was over 100 µM in each case.
